Source: ChEMBL document CHEMBL1134891, “Design and synthesis of conformationally restricted eight-Membered ring diketones as potential serine protease inhibitors” (Bioorg Med Chem Lett, 2002)

Columns and labels:
[1] = target: Urokinase-type plasminogen activator (Homo sapiens) (UniProt P00749); assay: Compound was tested for percentage inhibition of urokinase in enzyme rate assays; NI denotes no significant inhibition at 100 uM
[2] = target: Plasminogen (Homo sapiens) (UniProt P00747); assay: Compound was tested for percentage inhibition of plasmin in enzyme rate assays; NI denotes no significant inhibition at 100 uM
Plasminogen (Homo sapiens), sequence (P00747 97-580 limits assumed): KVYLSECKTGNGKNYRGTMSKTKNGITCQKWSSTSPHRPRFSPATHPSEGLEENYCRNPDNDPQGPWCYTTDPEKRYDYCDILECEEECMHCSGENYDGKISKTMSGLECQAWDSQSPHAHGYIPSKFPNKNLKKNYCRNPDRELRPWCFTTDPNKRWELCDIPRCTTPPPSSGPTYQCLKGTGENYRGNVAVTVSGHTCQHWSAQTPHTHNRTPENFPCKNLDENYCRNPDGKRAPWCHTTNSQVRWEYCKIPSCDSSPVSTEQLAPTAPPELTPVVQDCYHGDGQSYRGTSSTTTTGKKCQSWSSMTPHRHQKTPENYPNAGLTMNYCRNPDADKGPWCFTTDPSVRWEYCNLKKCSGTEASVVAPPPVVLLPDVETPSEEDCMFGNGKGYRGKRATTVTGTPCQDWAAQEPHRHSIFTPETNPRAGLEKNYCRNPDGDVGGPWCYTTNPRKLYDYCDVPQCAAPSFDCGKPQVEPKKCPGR
Plasminogen (Homo sapiens), sequence (P00747 581-810 limits assumed): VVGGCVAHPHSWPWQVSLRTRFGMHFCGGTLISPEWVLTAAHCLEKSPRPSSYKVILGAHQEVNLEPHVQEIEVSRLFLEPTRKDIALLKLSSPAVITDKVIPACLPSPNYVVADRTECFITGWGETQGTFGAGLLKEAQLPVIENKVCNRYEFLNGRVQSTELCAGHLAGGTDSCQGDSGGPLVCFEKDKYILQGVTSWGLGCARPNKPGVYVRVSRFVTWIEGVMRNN

[3] = target: Plasminogen (Homo sapiens) (UniProt P00747); assay: Compound was tested for percentage inhibition of plasmin in enzyme rate assays; conditions: concentration not given here
[4] = target: Urokinase-type plasminogen activator (Homo sapiens) (UniProt P00749); assay: Compound was tested for percentage inhibition of urokinase in enzyme rate assays; conditions: concentration not given here

inhibition [1]	inhibition [2]	inhibition [3] [%]	inhibition [4] [%]	SMILES
No inhibition	No inhibition	–	–	CC[C@]1(C)CC[C@]2(C)[C@H](C)CC[C@]3(CCC(=O)[C@H]32)C(=O)C1=O
–	–	25	28	CC(=O)N[C@]1(C)CC[C@]2(C)[C@H](C)CC[C@]3(CCC(=O)[C@H]32)C(=O)C1=O
